Results: patent US20230157996A1, “SMALL-MOLECULE INHIBITOR TARGETING EB VIRUS NUCLEAR ANTIGEN PROTEIN, PREPARATION METHOD AND USE THEREOF” (priority 2020, published 2023)

Each compound was assayed on C666-1 cells (assay: C666-1 cell viability single concentration (50 μM) inhibition rate (Resazurin)). Details: 50 μM compound, 72 hours, C666-1 cells.
Type: cell-based
Summary of the method: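 EBV-positive C666-1 cells (5×10^3/well), pre-cultured 24 h, were exposed to compound at 50 μmol/L final for 72 h at 37° C, 5% CO2, in duplicate. Viability by resazurin (3 h, ex 560/em 590 nm); inhibition rate computed relative to DMSO control and medium-only blank.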

Row | Compound | C666-1 cell viability single concentration (50 μM) inhibition rate, Ratio* (Inh %)
1 | COC(=O)c1cccc(N2CC(Oc3ccccc3)C2)c1-n1cccc1 [Example 101, Methyl 3-(3-phenoxyazetidin-1-yl)-2-(1H-pyrrol-1-yl)benzoate] | +++ (30%-50% +++)

Same assay, conditions: Homo sapiens, C6661, 72 h, 50 μM compound, 72 hours, C666-1 cells; read-out: C666-1 cell viability single concentration (50 μM) inhibition rate, Ratio* (Inh %)

Row | Compound | inhibition at 50 µM
2 | CCCCCCCC(=O)OCc1ccc(OC2CN(c3cccc(C(=O)OC)c3-n3cccc3)C2)cc1 [Compound 75, Methyl 3-(3-(4-((octanoyloxy)methyl)phenoxy)azetidin-1-yl)-2-(1H-pyrrol-1-yl)benzoate] | 10 to 30%
3 | COC(=O)c1cccc(N2CC(Oc3ccc(CNC(C)=O)cc3)C2)c1-n1cccc1 [Compound 76, Methyl 3-(3-(4-(acetylaminomethyl)phenoxy)azetidin-1-yl)-2-(1H-pyrrol-1-yl)benzoate] | 10 to 30%
4 | CC(=O)NCc1ccc(OC2CN(c3cccc(C(=O)O)c3-n3cccc3)C2)cc1 [Compound 77, 3-(3-(4-(acetylaminomethyl)phenoxy)azetidin-1-yl)-2-(1H-pyrrol-1-yl)benzoic acid] | < 10%
5 | COC(=O)c1cccc(N2CC(Oc3ccc(CNS(=O)(=O)C4CC4)cc3)C2)c1-n1cccc1 [Compound 78, Methyl 3-(3-(4-(cyclopropylsulfonamidomethyl)phenoxy)azetidin-1-yl)-2-(1H-pyrrol-1-yl)benzoate] | > 50%
6 | COC(=O)c1cccc(N2CC(Oc3cccc(OC)c3)C2)c1-n1cccc1 [Compound 79, Methyl 3-(3-(3-methoxyphenoxy)azetidin-1-yl)-2-(1H-pyrrol-1-yl)benzoate] | 10 to 30%
7 | COc1cccc(OC2CN(c3cccc(C(=O)O)c3-n3cccc3)C2)c1 [Compound 80, 3-(3-(3-methoxyphenoxy)azetidin-1-yl)-2-(1H-pyrrol-1-yl)benzoic acid] | < 10%
8 | COC(=O)c1cccc(N2CC(Oc3ccc(C(F)(F)F)cc3)C2)c1-n1cccc1 [Compound 81, Methyl 2-(1H-pyrrol-1-yl)-3-(3-(4-(trifluoromethyl)phenoxy)azetidin-1-yl)benzoate] | 10 to 30%
9 | O=C(O)c1cccc(N2CC(Oc3ccc(C(F)(F)F)cc3)C2)c1-n1cccc1 [Compound 82, 2-(1H-pyrrol-1-yl)-3-(3-(4-(trifluoromethyl)phenoxy)azetidin 1-yl)benzoic acid] | < 10%
10 | COC(=O)c1cccc(N2CC(Oc3ccc(OC(F)(F)F)cc3)C2)c1-n1cccc1 [Compound 83, Methyl 2-(1H-pyrrol-1-yl)-3-(3-(4-(trifluoromethoxy)phenoxy)azetidin-1-yl)benzoate] | > 50%
11 | O=C(O)c1cccc(N2CC(Oc3ccc(OC(F)(F)F)cc3)C2)c1-n1cccc1 [Compound 84, 2-(1H-pyrrol-1-yl)-3-(3-(4-(trifluoromethoxy)phenoxy)azetidin-1-yl)benzoic acid] | < 10%
12 | COC(=O)c1cccc(N2CC(Oc3ccc(Cl)nc3)C2)c1-n1cccc1 [Compound 85, Methyl 3-(3-((6-chloropyridin-3-yl)oxy)azetidin-1-yl)-2-(1H-pyrrol-1-yl)benzoate] | > 50%
13 | O=C(O)c1cccc(N2CC(Oc3ccc(Cl)nc3)C2)c1-n1cccc1 [Compound 86, 3-(3-((6-chloropyridin-3-yl)oxy)azetidin-1-yl)-2-(1H-pyrrol-1-yl)benzoic acid] | < 10%
14 | COC(=O)c1cccc(N2CC(Oc3ccc(C(C)=O)cc3)C2)c1-n1cccc1 [Compound 87, Methyl 3-(3-(4-acetylphenoxy)azetidin-1-yl)-2-(1H-pyrrol-1-yl)benzoate] | > 50%
15 | CC(=O)c1ccc(OC2CN(c3cccc(C(=O)O)c3-n3cccc3)C2)cc1 [Compound 88, 3-(3-(4-acetylphenoxy)azetidin-1-yl)-2-(1H-pyrrol-1-yl)benzoic acid] | < 10%
16 | COC(=O)c1cccc(N2CC(Oc3ccc(C(C)O)cc3)C2)c1-n1cccc1 (centres unmarked) [Compound 89, Methyl 3-(3-(4-(1-hydroxyethyl)phenoxy)azetidin-1-yl)-2-(1H-pyrrol-1-yl)benzoate] | > 50%
17 | CC(O)c1ccc(OC2CN(c3cccc(C(=O)O)c3-n3cccc3)C2)cc1 (centres unmarked) [Compound 90, 3-(3-(4-(1-hydroxyethyl)phenoxy)azetidin-1-yl)-2-(1H-pyrrol-1-yl)benzoic acid] | < 10%
18 | COC(=O)c1cccc(N2CC(Oc3cc(Cl)nc(Cl)c3)C2)c1-n1cccc1 [Compound 91, Methyl 3-(3-((2,6-dichloropyridin-4-yl)oxy)azetidin-1-yl)-2-(1H-pyrrol-1-yl)benzoate] | < 10%
19 | O=C(O)c1cccc(N2CC(Oc3cc(Cl)nc(Cl)c3)C2)c1-n1cccc1 [Compound 92, 3-(3-((2,6-dichloropyridin-4-yl)oxy)azetidin-1-yl)-2-(1H-pyrrol-1-yl)benzoic acid] | < 10%
20 | COC(=O)c1cccc(N2CC(Oc3ccc(C#N)cc3)C2)c1-n1cccc1 [Compound 93, Methyl 3-(3-(4-cyanophenoxy)azetidin-1-yl)-2-(1H-pyrrol-1-yl)benzoate] | 30 to 50%
21 | N#Cc1ccc(OC2CN(c3cccc(C(=O)O)c3-n3cccc3)C2)cc1 [Compound 94, 3-(3-(4-cyanophenoxy)azetidin-1-yl)-2-(1H-pyrrol-1-yl)benzoic acid] | < 10%

Row | Compound | inhibition at 50 µM
22 | COC(=O)c1cccc(N2CC(Oc3ccc(Cl)cc3)C2)c1-n1cccc1 [Compound 95, Methyl 3-(3-(4-chlorophenoxy)azetidin-1-yl)-2-(1H-pyrrol-1-yl)benzoate] | < 10%
23 | O=C(O)c1cccc(N2CC(Oc3ccc(Cl)cc3)C2)c1-n1cccc1 [Compound 96, 3-(3-(4-chlorophenoxy)azetidin-1-yl)-2-(1H-pyrrol-1-yl)benzoic acid] | < 10%
24 | COC(=O)c1cccc(N2CC(Oc3ccc(N(C)C)cc3)C2)c1-n1cccc1 [Example 97, Methyl 3-(3-(4-(dimethylamino)phenoxy)azetidin-1-yl)-2-(1H-pyrrol-1-yl)benzoate] | 10 to 30%
25 | CN(C)c1ccc(OC2CN(c3cccc(C(=O)O)c3-n3cccc3)C2)cc1 [Example 98, 3-(3-(4-(dimethylamino)phenoxy)azetidin-1-yl)-2-(1H-pyrrol-1-yl)benzoic acid] | 10 to 30%
26 | CCOc1ccc(OC2CN(c3cccc(C(=O)OC)c3-n3cccc3)C2)cc1 [Example 99, Methyl 3-(3-(4-ethoxyphenoxy)azetidin-1-yl)-2-(1H-pyrrol-1-yl)benzoate] | < 10%
27 | CCOc1ccc(OC2CN(c3cccc(C(=O)O)c3-n3cccc3)C2)cc1 [Example 100, 3-(3-(4-ethoxyphenoxy)azetidin-1-yl)-2-(1H-pyrrol-1-yl)benzoic acid] | < 10%
28 | O=C(O)c1cccc(N2CC(Oc3ccccc3)C2)c1-n1cccc1 [Example 102, 3-(3-phenoxyazetidin-1-yl)-2-(1H-pyrrol-1-yl)benzoic acid] | < 10%
29 | COC(=O)c1cccc(N2CC(Oc3ccc4cc[nH]c4c3)C2)c1-n1cccc1 [Example 103, Methyl 3-(3-((1H-indol-6-yl)oxy)azetidin-1-yl)-2-(1H-pyrrol-1-yl)benzoate] | 10 to 30%
30 | O=C(O)c1cccc(N2CC(Oc3ccc4cc[nH]c4c3)C2)c1-n1cccc1 [Example 104, 3-(3-((1H-indol-6-yl)oxy)azetidin-1-yl)-2-(1H-pyrrol-1-yl)benzoic acid] | < 10%
31 | CCCOc1ccc(OC2CN(c3cccc(C(=O)OC)c3-n3cccc3)C2)cc1 [Example 105, Methyl 3-(3-(4-propoxyphenoxy)azetidin-1-yl)-2-(1H-pyrrol-1-yl)benzoate] | < 10%
32 | CCCOc1ccc(OC2CN(c3cccc(C(=O)O)c3-n3cccc3)C2)cc1 [Example 106, 3-(3-(4-propoxyphenoxy)azetidin-1-yl)-2-(1H-pyrrol-1-yl)benzoic acid] | < 10%
33 | CCCCOc1ccc(OC2CN(c3cccc(C(=O)OC)c3-n3cccc3)C2)cc1 [Example 107, Methyl 3-(3-(4-butoxyphenoxy)azetidin-1-yl)-2-(1H-pyrrol-1-yl)benzoate] | < 10%
34 | CCCCOc1ccc(OC2CN(c3cccc(C(=O)O)c3-n3cccc3)C2)cc1 [Example 108, 3-(3-(4-butoxyphenoxy)azetidin-1-yl)-2-(1H-pyrrol-1-yl)benzoic acid] | < 10%
35 | COC(=O)c1cccc(N2CC(Oc3ccc(OC(C)C)cc3)C2)c1-n1cccc1 [Example 109, Methyl 3-(3-(4-isopropoxyphenoxy)azetidin-1-yl)-2-(1H-pyrrol-1-yl)benzoate] | < 10%
36 | CC(C)Oc1ccc(OC2CN(c3cccc(C(=O)O)c3-n3cccc3)C2)cc1 [Example 110, 3-(3-(4-isopropoxyphenoxy)azetidin-1-yl)-2-(1H-pyrrol-1-yl)benzoic acid] | < 10%
37 | COC(=O)c1cccc(N2CC(Oc3ccc(Oc4ccccc4)cc3)C2)c1-n1cccc1 [Example 111, Methyl 3-(3-(4-phenoxyphenoxy)azetidin-1-yl)-2-(1H-pyrrol-1-yl)benzoate] | < 10%
38 | O=C(O)c1cccc(N2CC(Oc3ccc(Oc4ccccc4)cc3)C2)c1-n1cccc1 [Example 112, 3-(3-(4-phenoxyphenoxy)azetidin-1-yl)-2-(1H-pyrrol-1-yl)benzoic acid] | < 10%
39 | COC(=O)c1cccc(N2CC(Oc3ccc(COC4CCOCC4)cc3)C2)c1-n1cccc1 [Example 113, Methyl 2-(1H-pyrrol-1-yl)-3-(3-(4-(((tetrahydro-2H-pyran-4-yl)oxy)methyl)phenoxy)azetidin-1-yl)benzoate] | > 50%
40 | COC(=O)c1cccc(N2CC(Oc3ccc(COc4ccccc4)cc3)C2)c1-n1cccc1 [Example 114, Methyl 3-(3-(4-(phenoxymethyl)phenoxy)azetidin-1-yl)-2-(1H-pyrrol-1-yl)benzoate] | 10 to 30%
41 | O=C(O)c1cccc(N2CC(Oc3ccc(COc4ccccc4)cc3)C2)c1-n1cccc1 [Example 115, 3-(3-(4-(phenoxymethyl)phenoxy)azetidin-1-yl)-2-(1H-pyrrol-1-yl)benzoic acid] | < 10%
